Assay results from patent US20120171531A1, “REDOX FLOW BATTERY” (Samsung Electronics Co., Ltd., priority 2010, published 2012).

Assay: Viscosity of prepared electrolyte solution, Rheometer (AR2000)
Format: physicochemical
Settings: solvent PC
Description: The solubilities of each metal-ligand coordination compound obtained in Preparation Examples 1 through 3 in solvents and viscosity of prepared electrolyte solutions were measured and the results are shown in Table 1. Viscosities were measured using a Rheometer (AR2000).

| SMILES | Viscosity (cps) |
| --- | --- |
| F[B-](F)(F)F.F[B-](F)(F)F.[Ni+2].c1ccc(-c2ccccn2)nc1.c1ccc(-c2ccccn2)nc1.c1ccc(-c2ccccn2)nc1 [Preparation Example 2, Ni^2+—(bpy)3 [BF4]2] | 4.9 |
| F[B-](F)(F)F.F[B-](F)(F)F.[Fe+2].c1ccc(-c2ccccn2)nc1.c1ccc(-c2ccccn2)nc1.c1ccc(-c2ccccn2)nc1 [Preparation Example 1, Fe^2+—(bpy)3 [BF4]2] | 4.8 |
